This note sets out measurements from US8741879B2, “Petroleum jelly-free unguent compositions comprising vitamin D compounds and optionally steroidal anti-inflammatory agents” (Galderma S.A., priority 2006, dated 2014).

Data set [1] is described as follows: Stability of calcitriol 30 ppm solution in absolute ethanol with 0.02% BHT (HPLC assay against a reference substance). The data set is classed as physicochemical. As to conditions: 30 ppm in absolute ethanol. From the text: b) Stability of Calcitriol in Ethanol: Calcitriol solution 30 ppm in qs 100% absolute ethanol in the presence of 0.02% BHT. Assay technique by HPLC against a reference substance. The starting time (T0) is considered to be 100%.

The nature of data set [2]: Solubility of clobetasol propionate in solvents (HPLC). In kind it is physicochemical. The source says: a) Solubility of Clobetasol Propionate:

Each structure is given as a SMILES string.

For the compound `C=C1/C(=C\C=C2/CCC[C@]3(C)[C@@H]([C@H](C)CCCC(C)(C)O)CC[C@@H]23)C[C@@H](O)C[C@@H]1O` [Calcitriol, calcitriol], the “Calcitriol remaining (T0 = 100%)” value in data set [1] (+4° C., T1week) amounted to 97.7%; in data set [1] (+4° C., T2weeks) it was 98.6%; in data set [1] (+4° C., T3weeks), 98.1%; in data set [1] (+4° C., T4weeks), 97.7%; in data set [1] (+30° C., T2weeks), 93.4%; in data set [1] (+30° C., T4weeks), 93.0%. In addition, the “Calcitriol remaining (T0 = 100%)” value was 100.9% in data set [1] (−18° C., T1week); 100.5% in data set [1] (−18° C., T2weeks); 99.5% in data set [1] (−18° C., T3weeks); 99.5% in data set [1] (−18° C., T4weeks).
For `CCC(=O)O[C@]1(C(=O)CCl)[C@@H](C)C[C@H]2[C@@H]3CCC4=CC(=O)C=C[C@]4(C)[C@@]3(F)[C@@H](O)C[C@@]21C` [Clobetasol Propionate, clobetasol 17-propionate], the figures for the Solubility in data set [2] (in Ethanol 96), in data set [2] (in Propylene glycol) and in data set [2] (in Transcutol) were 50.40 mg/g, 9.10 mg/g and 120.70 mg/g, respectively.
